Experimental data published in patent publication US7625948B2, “Ester compound and medicinal use thereof” (Japan Tobacco Inc., priority 2002, dated 2009).
Read-outs that look alike come from different tables or passages of the source. One block for each compound: values may come before it.

Key:
Syrian hamsters [1] = test: Test Example 4: liver TG release inhibition test (Triton WR 1339); format: in vivo; settings: Triton WR 1339, plasma TG release velocity over 2 h, fasted Syrian hamsters
Method: Liver TG Release Inhibition Test
Syrian hamsters (9 to 11 weeks of age) which were fasted for one day were used in the test. Blood was collected previously from orbital venous plexus, and a sample was forced to be administered orally to the hamsters at a dose of 30, 100 or 300 mg/2 mL/kg, and the same amount of vehicle was administered to the control group. Triton WR 1339 (2 mL/kg) was intravenously administered to the hamsters 30 minutes after the above administration. Two hours later, blood was collected from orbital venous plexus, and plasma was separated from the blood. The amount of TG in the plasma was determined by automatic analyzer (Hitachi Co.). The data was expressed in terms of TG release velocity (mg/dL/min)=(value at 2nd hour minus value before administration)/120. Inhibition rate (%) was calculated from the data obtained on the basis of the following equation.
Inhibition rate (%)=100×(1 minus TG release velocity of sample/TG release velocity of control group).

HepG2 cells = test: Test Example 2: inhibition of apolipoprotein B secretion from HepG2 cells, ELISA (also used for metabolites in Test Example 8); format: cell-based; settings: Homo sapiens, 24 hours, apo B in supernatant by ELISA, read-out: Test Example 2 Inhibition of apo B secretion IC50
Outline: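 HepG2 cells cultured 24 h, then exposed 24 h to compounds or metabolites in medium with 0.5% DMSO. Secreted apo B in supernatant quantified by sandwich ELISA (HRP, ABTS, 405 nm) against purified human apo B standard; % inhibition vs DMSO group, IC50 derived.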

Syrian hamsters [2] = test: Test Example 3: olive oil-loading test (inhibition of fat absorption, plasma TG); format: in vivo; settings: Mesocricetus auratus, po; 100 mg/kg p.o.; plasma TG 4 hours after olive oil; read-out: Test Example 3 Inhibition of fat absorption after olive oil-loading in Hamster Inhibition rate (%)
[3] = Test Example 6: determination of the concentration in plasma (unchanged form and metabolite, orbital venous plexus and portal vein, LC/MS); format: in vivo; settings: hamster, oral, Syrian hamsters; for concentration at 1 h: 1 h after 30 mg/kg p.o.; for concentration at 2 h: 2 h after 30 mg/kg p.o.; for concentration at 4 h: 4 h after 30 mg/kg p.o.
Method: Determination of the Concentration in Plasma Syrian hamsters (9-15 weeks of age) under non-fasted conditions were used in the test. A sample was suspended in 0.5% methyl cellulose (vehicle), and the suspension was forced to be administered orally to the hamsters at a dose of 30 or 100 mg/2 mL/kg. After a fixed period of time, blood was partly collected from orbital venous plexus, and the hamsters were subjected to laparotomy under ether anesthesia, and then blood was collected from portal vein. The blood was immediately cooled with ice to separate plasma. A portion of the plasma was extracted with an organic solvent and the supernatant was recovered. Concentration of the sample (unchanged form) and that of the metabolite in the supernatant were determined quantitatively by high performance liquid chromatography/mass spectrometry (LC/MS) comparing with chromatogram of synthetic standard.

Syrian hamsters [4] = test: Test Example 3: olive oil-loading test (inhibition of fat absorption, plasma TG); format: in vivo; settings: Mesocricetus auratus, po, plasma TG 4 hours after olive oil, read-out: Test Example 3 Inhibition of fat absorption after olive oil-loading in Hamster Inhibition rate (%); for inhibition in vivo at 3 mg/kg: 3 mg/kg p.o.; for inhibition in vivo at 10 mg/kg: 10 mg/kg p.o.
Method: Syrian hamsters (9-11 weeks of age) under non-fasted conditions were used in the test. Blood was collected previously from orbital venous plexus, and a sample was suspended in 0.5% methyl cellulose (vehicle) and the suspension was forced to be administered orally to the hamsters at a dose of 0.3, 1, 3 or 10 mg/2 mL/kg. Only vehicle in the same volume was administered to the control group. Olive oil (2 mL/kg) was forced to be administered orally 30 minutes after the administration of the sample, and blood was collected from orbital venous plexus 4 hours later. Plasma was recovered from the blood, and the amount of triglyceride (TG) in the plasma was determined by automatic analyzer (Hitachi Co.). The data was expressed in terms of ΔTG(mg/dL)=the value at 4th hr minus the value before administration. Inhibition rate (%) was calculated from the data obtained on the basis of the following equation.
Inhibition rate (%)=100×(1 minus ΔTG of sample group/ΔTG of control group).

[5] = plasma from peripheral blood (orbital venous plexus), read-out: Concentration in plasma, unaltered form, peripheral blood
[6] = plasma from portal vein blood, read-out: Concentration in plasma, unaltered form, blood of portal vein

SMILES: CCNC(=O)C(COC(=O)Cc1ccc(NC(=O)c2ccccc2-c2ccc(C(F)(F)F)cc2)cc1)(C(=O)NCC)c1ccccc1 [Example 1, 4-[(4′-Trifluoromethylbiphenyl-2-carbonyl)amino]phenyl-acetic acid 2,2-bisethylcarbamoyl-2-phenylethyl ester]
Inhibition of liver TG release in Hamster, Inhibition rate(%) (Syrian hamsters [1]; 300 mg/kg p.o.): 19(300) %
IC50 (HepG2 cells): 5.8 nM
inhibition in vivo at 100 mg/kg (Syrian hamsters [2]): 57%

SMILES: CCOC(=O)C(COC(=O)Cc1ccc(OC(=O)c2ccccc2-c2ccc(C(F)(F)F)cc2)cc1)(C(=O)OCC)c1ccccc1 [Example 1-2, 2-Phenyl-2-{2-[4-(4′-trifluoromethylbiphenyl-2-carbonyloxy)phenyl]acetoxymethyl}malonic acid diethyl ester]
IC50 (HepG2 cells): 850 nM
concentration at 1 h [3, 5]: < 200 nM
concentration at 2 h [3, 5]: < 200 nM
concentration at 4 h [3, 5]: < 200 nM
concentration at 1 h [3, 6]: < 200 nM
concentration at 2 h [3, 6]: < 200 nM
concentration at 4 h [3, 6]: < 200 nM

SMILES: O=C(Cc1ccc(NC(=O)c2ccccc2-c2ccc(C(F)(F)F)cc2)cc1)OCC1(C(=O)NCC(F)(F)F)c2ccccc2-c2ccccc21 [Example 1-6]
Inhibition of liver TG release in Hamster, Inhibition rate(%) (Syrian hamsters [1]; 100 mg/kg p.o.): 0(100) %
IC50 (HepG2 cells): 5.5 nM
inhibition in vivo at 10 mg/kg (Syrian hamsters [4]): 54%

SMILES: O=C(Cc1ccc(NC(=O)c2ccccc2-c2ccc(C(F)(F)F)cc2)cc1)OCC(C(=O)NCC(F)(F)F)(C(=O)NCC(F)(F)F)c1ccccc1 [Example 1-12]
IC50 (HepG2 cells): 63 nM
concentration at 1 h [3, 5]: < 200 nM
concentration at 2 h [3, 5]: < 200 nM
concentration at 4 h [3, 5]: < 200 nM
concentration at 1 h [3, 6]: < 200 nM
concentration at 2 h [3, 6]: < 200 nM
concentration at 4 h [3, 6]: < 200 nM

SMILES: COC(=O)C(COC(=O)Cc1ccc(NC(=O)c2ccccc2-c2ccc(C(F)(F)F)cc2)cc1)(C(=O)OC)c1ccccc1 [Example 1-13]
IC50 (HepG2 cells): 170 nM
concentration at 1 h [3, 5]: < 200 nM
concentration at 2 h [3, 5]: < 200 nM
concentration at 4 h [3, 5]: < 200 nM
concentration at 1 h [3, 6]: < 200 nM
concentration at 2 h [3, 6]: < 200 nM
concentration at 4 h [3, 6]: < 200 nM

SMILES: CCOC(=O)C(COC(=O)Cc1ccc(NC(=O)c2ccccc2-c2ccc(C(F)(F)F)cc2)c(C(=O)N2CCCC2)c1)(C(=O)OCC)c1ccccc1 [Example 2-22]
Inhibition of liver TG release in Hamster, Inhibition rate(%) (Syrian hamsters [1]; 30 mg/kg p.o.): 0(30) %
IC50 (HepG2 cells): 0.44 nM
inhibition in vivo at 3 mg/kg (Syrian hamsters [4]): 61%

SMILES: CCNC(=O)C(CCOC(=O)Cc1ccc(NC(=O)c2ccccc2-c2ccc(C(F)(F)F)cc2)c(OC)c1)(C(=O)NCC)c1ccccc1 [Example 3-6]
IC50 (HepG2 cells): 0.63 nM
inhibition in vivo at 3 mg/kg (Syrian hamsters [4]): 52%

SMILES: CCNC(=O)C(CCOC(=O)Cc1ccc(NC(=O)c2ccccc2-c2ccc(C(F)(F)F)cc2)c(OCC)c1)(C(=O)NCC)c1ccccc1 [Example 3-8]
IC50 (HepG2 cells): 0.38 nM
inhibition in vivo at 3 mg/kg (Syrian hamsters [4]): 60%

Now from value to compound, other results behind:

IC50 (HepG2 cells): 0.65 nM
SMILES: CCNC(=O)C(COC(=O)Cc1ccc(NC(=O)c2ccccc2-c2ccc(C(F)(F)F)cc2)c(CC)c1)(C(=O)NCC)c1ccccc1 [Example 1-5, {3-Ethyl-4-[(4′-trifluoromethylbiphenyl-2-carbonyl)amino]phenyl}acetic acid 2,2-bisethylcarbamoyl-2-phenylethyl ester]
inhibition in vivo at 3 mg/kg (Syrian hamsters [4]): 59%

IC50 (HepG2 cells): 6.9 nM
SMILES: CCCNC(=O)C(COC(=O)Cc1ccc(NC(=O)c2ccccc2-c2ccc(C(F)(F)F)cc2)cc1)(C(=O)NCCC)c1ccccc1 [Example 1-35]
Inhibition of liver TG release in Hamster, Inhibition rate(%) (Syrian hamsters [1]; 300 mg/kg p.o.): 9(300) %
inhibition in vivo at 100 mg/kg (Syrian hamsters [2]): 59%

IC50 (HepG2 cells): 1.5 nM
SMILES: CCNC(=O)C(COC(=O)Cc1ccc(NC(=O)c2ccccc2-c2ccc(C(F)(F)F)cc2)c(C(=O)N(C)C)c1)(C(=O)NCC)c1ccccc1 [Example 2, {3-Dimethylcarbamoyl-4-[(4′-trifluoromethylbiphenyl-2-carbonyl)amino]phenyl}acetic acid 2,2-bisethylcarbamoyl-2-phenylethyl ester]
inhibition in vivo at 10 mg/kg (Syrian hamsters [4]): 95%

IC50 (HepG2 cells): 1.3 nM
SMILES: CCCNC(=O)C(COC(=O)Cc1ccc(NC(=O)c2ccccc2-c2ccc(C(F)(F)F)cc2)c(C(=O)N(C)C)c1)(C(=O)NCCC)c1ccccc1 [Example 2-2]
inhibition in vivo at 10 mg/kg (Syrian hamsters [4]): 96%

IC50 (HepG2 cells): 2 nM
SMILES: CCNC(=O)C(COC(=O)Cc1ccc(NC(=O)c2ccccc2-c2ccc(C(F)(F)F)cc2)c(C(=O)NC)c1)(C(=O)NCC)c1ccccc1 [Example 2-3]
inhibition in vivo at 3 mg/kg (Syrian hamsters [4]): 68%

IC50 (HepG2 cells): 0.29 nM
SMILES: CCNC(=O)C(CCOC(=O)Cc1ccc(NC(=O)c2ccccc2-c2ccc(C(F)(F)F)cc2)c(C(=O)N(C)C)c1)(C(=O)NCC)c1ccccc1 [Example 2-4]
inhibition in vivo at 3 mg/kg (Syrian hamsters [4]): 78%

IC50 (HepG2 cells): 0.55 nM
concentration at 1 h [3, 5]: < 20 nM
concentration at 2 h [3, 5]: < 20 nM
concentration at 4 h [3, 5]: < 20 nM
concentration at 1 h [3, 6]: 10 nM
concentration at 2 h [3, 6]: 30 nM
concentration at 4 h [3, 6]: 10 nM
SMILES: CCOC(=O)C(COC(=O)Cc1ccc(NC(=O)c2ccccc2-c2ccc(C(F)(F)F)cc2)c(C(=O)N(C)C)c1)(C(=O)OCC)c1ccccc1 [Example 2-5]
Inhibition of liver TG release in Hamster, Inhibition rate(%) (Syrian hamsters [1]; 100 mg/kg p.o.): 0(100) %
inhibition in vivo at 3 mg/kg (Syrian hamsters [4]): 70%

IC50 (HepG2 cells): 0.56 nM
SMILES: CCNC(=O)C(CCCOC(=O)Cc1ccc(NC(=O)c2ccccc2-c2ccc(C(F)(F)F)cc2)c(C(=O)N(C)C)c1)(C(=O)NCC)c1ccccc1 [Example 2-7]
inhibition in vivo at 3 mg/kg (Syrian hamsters [4]): 58%

IC50 (HepG2 cells): 0.76 nM
SMILES: COC(=O)C(COC(=O)Cc1ccc(NC(=O)c2ccccc2-c2ccc(C(F)(F)F)cc2)c(C(=O)N(C)C)c1)(C(=O)OC)c1ccccc1 [Example 2-39]
Inhibition of liver TG release in Hamster, Inhibition rate(%) (Syrian hamsters [1]; 100 mg/kg p.o.): 6(100) %
inhibition in vivo at 3 mg/kg (Syrian hamsters [4]): 68%

IC50 (HepG2 cells): 1 nM
SMILES: CCNC(=O)C(COC(=O)Cc1ccc(NC(=O)c2ccccc2-c2ccc(C(F)(F)F)cc2)c(OC)c1)(C(=O)NCC)c1ccccc1 [Example 3-3]
Inhibition of liver TG release in Hamster, Inhibition rate(%) (Syrian hamsters [1]; 100 mg/kg p.o.): 18(100) %
inhibition in vivo at 10 mg/kg (Syrian hamsters [4]): 78%

IC50 (HepG2 cells): 0.31 nM
SMILES: CCNC(=O)C(COC(=O)Cc1ccc(NC(=O)c2ccccc2-c2ccc(C(F)(F)F)cc2)c(OC(C)C)c1)(C(=O)NCC)c1ccccc1 [Example 3-10]
inhibition in vivo at 3 mg/kg (Syrian hamsters [4]): 85%
